In the oligonucleotide strings, read from the 5' end, every base follows the letter of its sugar. An asterisk marks phosphorothioate; unmarked linkages are phosphodiester. Other units and linkages are bracketed, terminal groups are in braces. A string of capitals states the bases alone. e = 2'-O-(2-methoxyethyl) (MOE); [5mC] = 5-methylcytosine; d = 2'-deoxy (DNA)

For one data set, the system named is human apolipoprotein B mRNA. As to the kind of experiment: Inhibition of human apolipoprotein B mRNA levels in HepG2 cells, quantitative real-time PCR. The class given is cell-based. The conditions noted are these: HepG2 cells treated with 150 nM of compound; averages from two experiments; quantitative real-time PCR. A digest of the protocol:
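Apolipoprotein B transcript was quantified by one-step TaqMan RT-PCR, normalized to GAPDH or RiboGreen RNA, and expressed as percent inhibition against an untreated-sample standard curve. HepG2 cells were harvested 16-24 h after oligonucleotide exposure, which was delivered with 3.75 μg/mL Lipofectin over 4-7 h at 80% confluency.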
For orientation: Quantitative PCR measures a nucleic acid by following its amplification.
In the case of “270989 (antisense e[5mC]*e[5mC]*eA*eG*e[5mC]*dT*dT*dG*dA*dG*d[5mC]*dT*d[5mC]*dA*dT*eA*e[5mC]*e[5mC]*eT*eG) [compound 270989]”, the “% INHIB (inhibition of human apolipoprotein B mRNA levels)” value was 64%. “281600 (antisense eG*eA*eT*e[5mC]*eA*dT*d[5mC]*dA*dG*dT*dG*dA*dT*dG*dG*e[5mC]*eT*eT*eT*eG) [compound 281600]”: the “% INHIB (inhibition of human apolipoprotein B mRNA levels)” value was found to be 52%. On to “301025 (eT*eA*eT*eG*eT*dG*dA*dA*dA*dG*dT*dT*d[5mC]*dA*dA*eT*eT*eG*eG*eA; antisense) [compound 301025]”, for which the “% INHIB (inhibition of human apolipoprotein B mRNA levels)” value amounted to 76%. “301217 (antisense eA*eG*eA*e[5mC]*eT*d[5mC]*d[5mC]*dA*dT*dT*dT*dA*dT*dT*dT*eG*eT*eT*e[5mC]*e[5mC]) [compound 301217]”: the “% INHIB (inhibition of human apolipoprotein B mRNA levels)” value is 81%.

For “270994 (antisense eG*e[5mC]*e[5mC]*eT*eT*dT*dG*dA*dT*dG*dA*dG*dA*dG*d[5mC]*eA*eA*eG*eT*eG) [compound 270994]”, the “% INHIB (inhibition of human apolipoprotein B mRNA levels)” value was found to be 51%. As to “281619 (antisense e[5mC]*eT*e[5mC]*eT*e[5mC]*d[5mC]*dA*dT*dT*dG*dA*dG*d[5mC]*d[5mC]*dG*eG*e[5mC]*e[5mC]*eA*eG) [compound 281619]”, the “% INHIB (inhibition of human apolipoprotein B mRNA levels)” value was 96%.

Take “281604 (antisense e[5mC]*eT*eG*eA*eG*dT*dT*d[5mC]*dA*dA*dG*dA*dT*dA*dT*eT*eG*eG*e[5mC]*eA) [compound 281604]”: the “% INHIB (inhibition of human apolipoprotein B mRNA levels)” value is reported as 78%. For “301013 (e[5mC]*e[5mC]*e[5mC]*e[5mC]*eG*d[5mC]*dA*dG*dG*dT*d[5mC]*d[5mC]*d[5mC]*dG*dG*eT*eG*eG*eG*eA; antisense) [compound 301013]”, the “% INHIB (inhibition of human apolipoprotein B mRNA levels)” value is given as 82%. Take “270987 (antisense e[5mC]*e[5mC]*eT*e[5mC]*e[5mC]*dA*dG*d[5mC]*dT*d[5mC]*dA*dA*d[5mC]*d[5mC]*dT*eT*eG*e[5mC]*eA*eG) [compound 270987]”: the “% INHIB (inhibition of human apolipoprotein B mRNA levels)” value was 0%. As for “271025 (eT*e[5mC]*e[5mC]*eA*eT*dT*d[5mC]*d[5mC]*d[5mC]*dT*dA*dT*dG*dT*d[5mC]*eA*eG*e[5mC]*eA*eT; antisense) [compound 271025]”, the “% INHIB (inhibition of human apolipoprotein B mRNA levels)” value is 16%.

The same data set, now with this note: HepG2 cells; 10 nM; 24 hour (Table 41).
For the substance “332777 (antisense GCCTCAGTCTGCTTCGCA; sugars from the 5' end e5 d10 e3, all phosphorothioate, methylation of C not given here) [compound 332777]”, the “% Change in apolipoprotein B mRNA expression” value (from here on “% Change”) is −27%.

The data set is the same for the next values; noted with them: HepG2 cells; 50 nM; 24 hour (Table 41).
In the case of “332777 (antisense GCCTCAGTCTGCTTCGCA; sugars from the 5' end e5 d10 e3, all phosphorothioate, methylation of C not given here) [compound 332777]”, the “% Change” value is on record as −53%.

Still in this data set, the particulars now being: HepG2 cells; 150 nM; 24 hour (Table 41).
On to “332777 (antisense GCCTCAGTCTGCTTCGCA; sugars from the 5' end e5 d10 e3, all phosphorothioate, methylation of C not given here) [compound 332777]”, for which the “% Change” value was -80%.

The data set is the same for the next values; noted with them: HepG2 cells; human apolipoprotein B mRNA; oligonucleotides targeting genomic sequence SEQ ID NO 334; averages from two experiments.
On to “301101 (antisense eG*eG*eA*eG*eG*dT*dG*d[5mC]*dT*dA*d[5mC]*dT*dG*dT*dT*eG*eA*e[5mC]*eA*eT) [compound 301101]”, for which the “% INHIB” value came out at 42%.

For the substance “301209 (antisense eA*eT*eA*eA*eA*dT*dA*dA*dT*dA*dG*dT*dG*d[5mC]*dT*eG*eA*eT*eG*eG) [compound 301209]”, the “% INHIB” value amounted to 39%. Still for that read-out and setting: in the case of “301193 (antisense eA*eG*e[5mC]*eT*e[5mC]*dA*dT*dT*dG*d[5mC]*d[5mC]*dT*dA*d[5mC]*dA*eA*eA*eA*eT*eG) [compound 301193]” it was 31%. Still for that read-out and setting: then “301119 (antisense eA*e[5mC]*eA*eT*eA*d[5mC]*dA*dA*dA*dT*dG*dG*d[5mC]*dA*dA*eT*eA*eG*eG*e[5mC]) [compound 301119]”, with 33%. Still for that read-out and setting: in the case of “301178 (antisense eA*eG*eG*eA*eT*dT*d[5mC]*d[5mC]*d[5mC]*dA*dA*dG*dA*d[5mC]*dT*eT*eT*eG*eG*eA) [compound 301178]” it was 38%; in that of “301142 (eA*eT*eG*e[5mC]*eA*dG*d[5mC]*d[5mC]*dA*dG*dG*dA*dT*dG*dG*eG*e[5mC]*e[5mC]*eT*eA; antisense) [compound 301142]”, 54%; in that of “301144 (eG*e[5mC]*eA*eA*eA*dG*dG*dT*dA*dG*dA*dG*dG*dA*dA*eG*eG*eT*eA*eT; antisense) [compound 301144]”, 32%. As to “301059 (eA*eT*e[5mC]*eA*eG*dA*dG*d[5mC]*dA*d[5mC]*d[5mC]*dA*dA*dA*dG*eG*eG*eA*eA*eT; antisense) [compound 301059]”, the “% INHIB” value came to 12%.

On to “301203 (antisense eG*eT*eT*e[5mC]*e[5mC]*d[5mC]*dA*dA*dA*dA*d[5mC]*dT*dG*dT*dA*eT*eA*eG*eG*eA) [compound 301203]”, for which the “% INHIB” value is 36%. Same read-out and setting: then “301164 (antisense eG*e[5mC]*eT*eT*eT*d[5mC]*dG*d[5mC]*dA*dG*d[5mC]*dT*dG*dG*dG*e[5mC]*eA*eT*eG*e[5mC]) [compound 301164]”, with 55%; and “301189 (antisense eT*eG*eT*eG*eT*d[5mC]*dA*d[5mC]*dA*dA*d[5mC]*dT*dA*dT*dG*eG*eT*eA*eA*eA) [compound 301189]”, with 63%; and “301056 (e[5mC]*eA*eG*eT*eT*dG*dA*dA*dA*dT*dG*d[5mC]*dA*dG*d[5mC]*eT*eA*eA*eT*eG; antisense) [compound 301056]”, with 35%. For “301162 (antisense e[5mC]*eA*eT*e[5mC]*eT*d[5mC]*dT*dG*dA*dG*d[5mC]*d[5mC]*d[5mC]*d[5mC]*dT*eT*eA*e[5mC]*e[5mC]*eA) [compound 301162]”, the “% INHIB” value came out at 24%. In the case of “301151 (e[5mC]*e[5mC]*eT*e[5mC]*eT*d[5mC]*d[5mC]*dA*dA*dT*d[5mC]*dT*dG*dT*dA*eG*eA*e[5mC]*e[5mC]*e[5mC]; antisense) [compound 301151]”, the “% INHIB” value is reported as 28%. On to “301192 (antisense eT*eG*eA*eG*eG*dA*dT*dG*dT*dA*dA*dT*dT*dA*dG*e[5mC]*eA*e[5mC]*eT*eT) [compound 301192]”, for which the “% INHIB” value is 27%. Still for that read-out and setting: in the case of “301072 (eA*eT*eT*eT*eT*dA*dA*dA*dT*dT*dA*d[5mC]*dA*dG*dT*eA*eG*eA*eT*eA; antisense) [compound 301072]” it was 43%; in that of “301165 (antisense eA*e[5mC]*eT*e[5mC]*e[5mC]*dT*dT*dT*d[5mC]*dT*dA*dT*dA*d[5mC]*d[5mC]*eT*eG*eG*e[5mC]*eT) [compound 301165]”, 47%. As for “301086 (antisense eG*eG*eT*eT*eT*dT*dG*d[5mC]*dT*dG*d[5mC]*d[5mC]*d[5mC]*dT*dA*e[5mC]*eA*eT*e[5mC]*e[5mC]) [compound 301086]”, the “% INHIB” value amounted to 30%. Regarding “301112 (antisense eG*eG*eA*eA*eA*d[5mC]*dT*d[5mC]*dA*d[5mC]*dT*dT*dG*dT*dT*eG*eA*e[5mC]*e[5mC]*eG) [compound 301112]”, the “% INHIB” value was determined as 25%. Take “301071 (e[5mC]*eA*e[5mC]*eT*eT*dG*dT*dT*dG*dG*dA*d[5mC]*dA*dG*dT*e[5mC]*eA*eT*eT*e[5mC]; antisense) [compound 301071]”: the “% INHIB” value amounted to 48%.

Staying with this data set, now noted: Table 1; HepG2 cells, 150 nM; averages from two experiments.
In the case of “147814 (antisense e[5mC]*e[5mC]*e[5mC]*eA*eA*dT*dA*dA*dG*dA*dT*dT*dT*dA*dT*eA*eA*e[5mC]*eA*eA) [compound 147814]”, the “% INHIB” value is 34%. On the same count and under the same terms, in the case of “147827 (antisense e[5mC]*eT*eA*eA*eT*dG*dG*d[5mC]*d[5mC]*d[5mC]*d[5mC]*dT*dT*dG*dA*eT*eA*eA*eA*e[5mC]) [compound 147827]” it was 13%.

The data set is the same for the next values; noted with them: Table 11 gene walk; HepG2 cells, 50 nM; averages from two experiments.
On to “308598 (antisense e[5mC]*e[5mC]*eT*e[5mC]*eA*dG*dT*d[5mC]*dT*dG*d[5mC]*dT*dT*d[5mC]*dG*e[5mC]*eA*e[5mC]*e[5mC]*eT) [compound 308598]”, for which the “% INHIB 50 nm” value amounted to 59%. Turning to “308615 (e[5mC]*eT*eT*eT*eT*dA*dG*dG*dT*dT*dA*d[5mC]*d[5mC]*dA*dG*e[5mC]*e[5mC]*eA*e[5mC]*eA; antisense) [compound 308615]”, the “% INHIB 50 nm” value is given as 45%.

As for “308621 (eT*eT*eT*eG*eG*dT*dA*dG*dG*d[5mC]*dT*d[5mC]*d[5mC]*dT*dT*eT*eT*eA*eG*eG; antisense) [compound 308621]”, the “% INHIB 50 nm” value is reported as 56%. Regarding “308603 (eG*eT*e[5mC]*eA*eT*dG*dG*dT*dA*dG*d[5mC]*d[5mC]*dT*d[5mC]*dA*eG*eT*e[5mC]*eT*eG; antisense) [compound 308603]”, the “% INHIB 50 nm” value is reported as 56%.

The data set is the same for the next values; noted with them: Table 11 gene walk; HepG2 cells, 150 nM; averages from two experiments.
Regarding “308598 (antisense e[5mC]*e[5mC]*eT*e[5mC]*eA*dG*dT*d[5mC]*dT*dG*d[5mC]*dT*dT*d[5mC]*dG*e[5mC]*eA*e[5mC]*e[5mC]*eT) [compound 308598]”, the “% INHIB 150 nm” value was 85%. For the substance “308615 (e[5mC]*eT*eT*eT*eT*dA*dG*dG*dT*dT*dA*d[5mC]*d[5mC]*dA*dG*e[5mC]*e[5mC]*eA*e[5mC]*eA; antisense) [compound 308615]”, the “% INHIB 150 nm” value stood at 85%. Still for that read-out and setting: in the case of “308621 (eT*eT*eT*eG*eG*dT*dA*dG*dG*d[5mC]*dT*d[5mC]*d[5mC]*dT*dT*eT*eT*eA*eG*eG; antisense) [compound 308621]” it was 91%; in that of “308603 (eG*eT*e[5mC]*eA*eT*dG*dG*dT*dA*dG*d[5mC]*d[5mC]*dT*d[5mC]*dA*eG*eT*e[5mC]*eT*eG; antisense) [compound 308603]”, 97%.

Staying with this data set, now noted: Table 15; HepG2 cells, 150 nM; averages from two experiments.
As for “301218 (antisense eA*e[5mC]*eA*eT*eT*dT*dT*dA*dT*d[5mC]*dA*dA*dT*dG*d[5mC]*e[5mC]*e[5mC]*eT*e[5mC]*eG) [compound 301218]”, the “% INHIB” value is given as 23%.

As for “301222 (antisense eT*e[5mC]*eT*eA*eG*dA*dG*dG*dT*dT*dT*dT*dG*d[5mC]*dT*eG*eT*eG*e[5mC]*e[5mC]) [compound 301222]”, the “% INHIB” value is recorded as 14%.

In the case of “301225 (antisense eT*eA*eA*eA*eT*d[5mC]*dA*d[5mC]*dA*d[5mC]*dT*dA*dT*dG*dT*eG*eT*eT*e[5mC]*eT) [compound 301225]”, the “% INHIB” value stood at 3%.

Staying with this data set, now noted: Table 17 variable gap; HepG2 cells, 50 nM; averages from three experiments.
For the substance “308645 (antisense GCCTCAGTCTGCTTCGCGCC; 4-10-6 2'-MOE gapmer, phosphorothioate, chemistry not fully specified) [compound 308645]”, the “% INHIB 50 nm” value is recorded as 57%.

Staying with this data set, now noted: Table 17 variable gap; HepG2 cells, 150 nM; averages from three experiments.
For the substance “308645 (antisense GCCTCAGTCTGCTTCGCGCC; 4-10-6 2'-MOE gapmer, phosphorothioate, chemistry not fully specified) [compound 308645]”, the “% INHIB 150 nm” value is 98%.
